This assay concerns Paracoccus carotinifaciens strain E-396 (FERM BP-4283). As to the kind of experiment: Amino acid supplementation (20 amino acids), test tube culture, carotenoid by HPLC and growth by OD610. It counts as cell-based. Particulars: amino acid at 1.0 g/L; for effect on the production of carotenoid pigments: versus tube with no amino acid; for Astaxanthin / Total carotenoid: culture solution; for Astaxanthin / Total carotenoid / OD610: 28° C. for 4 days; for OD610: microbial cell growth, absorbance at 610 nm. Here is the method:
In the examples, carotenoids were quantified by high performance liquid chromatography (HPLC) as follows.
Two columns of Wakosil-II 5 SIL-100 (φ4.6×250 mm) (Wako Pure Chemical Industries, Ltd., Japan) were connected to each other for use as a column. Elution was performed by flowing an n-hexane-tetrahydrofuran-methanol mixed solution (40:20:1), which was a mobile phase, at a flow rate of 1.0 mL/minute at a constant temperature around room temperature. The measurement was performed as follows. Samples were each dissolved in tetrahydrofuran and then diluted 100-fold with the mobile phase. Each dilution was injected in a volume of 20 μL. The column eluate was detected at a wavelength of 470 nm. As a reference for quantification, astaxanthin (SIGMA, Cat. No. A9335) was used. The astaxanthin concentration of the reference solution was determined using the following equation after measuring the absorbance (A) of the reference solution at 477 nm and the area percentage % (B) of the astaxanthin peak at the time of HPLC analysis under the above conditions. Astaxanthin concentration (mg/L)=A/2150×B×100
A medium of the following composition (sucrose 30 g/L, corn steep liquor 30 g/L, potassium dihydrogenphosphate 1.5 g/L, disodium hydrogenphosphate 12-hydrate 3.8 g/L, calcium chloride dihydrate 5.0 g/L, magnesium sulfate 7-hydrate 0.7 g/L, iron sulfate 7-hydrate 0.3 g/L, pH 7.2) was dispensed in 8 ml volumes into cotton-plugged test tubes having an inner diameter of 18 mm and sterilized in an autoclave at 121° C. for 15 minutes to prepare a test tube medium for seed culture.
Next, a medium of the following composition (glucose 30 g/L, filtered corn steep liquor 5 g/L, ammonium sulfate 1.5 g/L, potassium dihydrogenphosphate 1.5 g/L, disodium hydrogenphosphate 12-hydrate 3.8 g/L, calcium chloride dihydrate 5.0 g/L, magnesium sulfate 7-hydrate 0.7 g/L, iron sulfate 7-hydrate 0.6 g/L, ester-based defoaming agent 0.2 g/L) was dispensed in 8 ml volumes into cotton-plugged test tubes having an inner diameter of 18 mm (21 tubes in total).
The mediums in these test tubes were supplemented with 20 amino acids, glycine, alanine, valine, leucine, isoleucine, serine, threonine, aspartic acid, glutamic acid, asparagine, glutamine, lysine, arginine, cysteine, methionine, phenylalanine, tyrosine, tryptophan, histidine and proline, respectively, at 1.0 g/L. One of the tubes was supplemented with no amino acid as a control. Finally, the mediums in the tubes were adjusted to pH 7.1 with aqueous sodium hydroxide or aqueous sulfuric acid and then sterilized in an autoclave at 121° C. for 20 minutes.
Paracoccus carotinifaciens strain E-396 (FERM BP-4283) was inoculated into the test tube medium for seed culture and then cultured with shaking at 28° C. for 2 days at 300 spm. The resulting culture solution was then inoculated in 0.1 ml volumes into the 21 test tube media, respectively, and cultured with shaking at 28° C. for 4 days at 300 spm.
Each culture solution was measured for its carotenoid concentration by HPLC and microbial cell growth was determined by OD610 (absorbance at 610 nm).

As to `O=C(O)[C@@H]1CCCN1` [Proline, proline], the “effect on the production of carotenoid pigments” value (“effect on the production” for short) was “stimulatory effect”, the Astaxanthin was found to be 5.0 mg/L, the Total carotenoid was found to be 10.9 mg/L and the OD610 stood at 13.
As to `N[C@@H](CO)C(=O)O` [Serine, serine], the “effect on the production” value is given as “stimulatory effect”, the Astaxanthin is 6.0 mg/L, the Total carotenoid worked out at 16.4 mg/L and the OD610 turned out to be 13.
The like results for `CSCC[C@H](N)C(=O)O` [Methionine, methionine] were, in that order, “clear inhibitory effect”, 1.4 mg/L, 5.0 mg/L and 7.
`CC(C)[C@H](N)C(=O)O` [Valine, valine] showed an Astaxanthin of 3.0 mg/L, a Total carotenoid of 9.2 mg/L and an OD610 of 10.
Turning to `N[C@@H](Cc1c[nH]cn1)C(=O)O` [Histidine, histidine], the Astaxanthin was 3.3 mg/L, the Total carotenoid amounted to 8.1 mg/L and the OD610 is 8.
As for `N[C@@H](Cc1ccccc1)C(=O)O` [Phenylalanine, phenylalanine], the “effect on the production” value is listed as “stimulatory effect”, the Astaxanthin is reported as 4.9 mg/L, the Total carotenoid was found to be 10.6 mg/L and the OD610 is on record as 10.
The like results for `N=C(N)NCCC[C@H](N)C(=O)O` [Arginine, arginine] were, in that order, “stimulatory effect”, 5.1 mg/L, 11.7 mg/L and 13.
The corresponding values for `N[C@@H](Cc1ccc(O)cc1)C(=O)O` [Tyrosine, tyrosine] are “stimulatory effect”, 5.0 mg/L, 11.3 mg/L and 12.
The like results for `N[C@@H](CC(=O)O)C(=O)O` [Aspartic Acid, aspartic acid] were, in that order, “stimulatory effect”, 9.4 mg/L, 27.0 mg/L and 18.
Turning to `CC[C@H](C)[C@H](N)C(=O)O` [Isoleucine, isoleucine], the “effect on the production” value was “clear inhibitory effect”, the Astaxanthin was 1.3 mg/L, the Total carotenoid is listed as 4.5 mg/L and the OD610 was 6.
On to `N[C@@H](CS)C(=O)O` [Cysteine, cysteine], for which the “effect on the production” value is “clear inhibitory effect”, the Astaxanthin was found to be 0.7 mg/L, the Total carotenoid came to 3.2 mg/L and the OD610 is listed as 4.
In the case of `NC(=O)C[C@H](N)C(=O)O` [Asparagine, asparagine], the “effect on the production” value is “stimulatory effect”, the Astaxanthin is listed as 8.1 mg/L, the Total carotenoid came to 24.2 mg/L and the OD610 came out at 14.
Consider `C[C@@H](O)[C@H](N)C(=O)O` [Threonine, threonine], for which the “effect on the production” value is on record as “stimulatory effect”, the Astaxanthin was determined as 5.2 mg/L, the Total carotenoid came out at 12.5 mg/L and the OD610 turned out to be 8.
Turning to `C[C@H](N)C(=O)O` [Alanine, alanine], the “effect on the production” value is given as “stimulatory effect”, the Astaxanthin came out at 6.2 mg/L, the Total carotenoid is 20.3 mg/L and the OD610 stood at 13.
As for `CC(C)C[C@H](N)C(=O)O` [Leucine, leucine], the “effect on the production” value was “stimulatory effect”, the Astaxanthin is on record as 4.7 mg/L, the Total carotenoid turned out to be 10.1 mg/L and the OD610 is listed as 11.
As for `N[C@@H](Cc1c[nH]c2ccccc12)C(=O)O` [Tryptophan, tryptophan], the Astaxanthin was 3.0 mg/L, the Total carotenoid was 7.0 mg/L and the OD610 is recorded as 10.
`NCC(=O)O` [Glycine, glycine]: the “effect on the production” value is “stimulatory effect”, the Astaxanthin is given as 6.2 mg/L, the Total carotenoid is reported as 19.0 mg/L and the OD610 is listed as 18.
The corresponding values for `NC(=O)CC[C@H](N)C(=O)O` [Glutamine, glutamine] are “stimulatory effect”, 8.3 mg/L, 25.8 mg/L and 17.
With `NCCCC[C@H](N)C(=O)O` [Lysine, lysine], the “effect on the production” value is on record as “clear inhibitory effect”, the Astaxanthin stood at 1.1 mg/L, the Total carotenoid is 4.9 mg/L and the OD610 was found to be 11.

(Values after patent US8993282B2, “Carotenoid fermentation method” (JX Nippon Oil & Energy Corporation, priority 2008, dated 2015).)
